Laboratory results from patent publication US9586961B2, “Homopiperazine derivatives as protein tyrosine kinase inhibitors and pharmaceutical use thereof” (LEO PHARMA A/S, priority 2010, dated 2017).

How the values were obtained:
Assay type in all cases: biochemical
[1] = target: T1, JAK2 (Homo sapiens, UniProt O60674); test: JAK2 kinase assay (HTRF, inhibition of phosphorylation of a synthetic peptide); details: catalytic domain, His-tag; 4 μM ATP (Km); read-out: JAK2 kinase inhibitory activity (EC50)
T1 construct: All four purified enzymes contain only the catalytic domain; His (N); purchased Carna Biosciences, Inc; host or cells: baculovirus expression system
T1 sequence (O60674 849-1124 limits assumed): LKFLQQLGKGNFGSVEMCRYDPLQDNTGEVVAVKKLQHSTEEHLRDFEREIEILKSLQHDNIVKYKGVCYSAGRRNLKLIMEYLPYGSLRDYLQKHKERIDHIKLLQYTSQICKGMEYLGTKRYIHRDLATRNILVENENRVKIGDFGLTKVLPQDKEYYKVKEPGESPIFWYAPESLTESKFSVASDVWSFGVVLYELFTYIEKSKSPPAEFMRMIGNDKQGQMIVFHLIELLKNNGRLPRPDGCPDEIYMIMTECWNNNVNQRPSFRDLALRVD
How it was run: (§1)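 Baculovirus-expressed catalytic domains (GST-JAK1 aa 850-1154, GST-TYK2 aa 871-1187, His-JAK2, His-JAK3) phosphorylate 1 μM biotin-TK peptide 20-30 min at RT in 50 mM Hepes pH 7.0 with ATP at Km: JAK1 7 μM, JAK2 4 μM, JAK3 2 μM, TYK2 13 μM; 0.75% DMSO. Stopped with EDTA, HTRF read overnight.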

[2] = target: T2, JAK1 (Homo sapiens, UniProt P23458); test: JAK1 kinase assay (HTRF, inhibition of phosphorylation of a synthetic peptide); details: catalytic domain aa 850-1154, GST-tag; 7 μM ATP (Km); read-out: JAK1 kinase inhibitory activity (EC50)
T2 construct: JAK1 (aa 850-1154) and TYK2 (aa 871-1187) are expressed with an N-terminally fused GST-tag; GST (N); purchased Carna Biosciences, Inc; host or cells: baculovirus expression system
T2 sequence (P23458 850-1154): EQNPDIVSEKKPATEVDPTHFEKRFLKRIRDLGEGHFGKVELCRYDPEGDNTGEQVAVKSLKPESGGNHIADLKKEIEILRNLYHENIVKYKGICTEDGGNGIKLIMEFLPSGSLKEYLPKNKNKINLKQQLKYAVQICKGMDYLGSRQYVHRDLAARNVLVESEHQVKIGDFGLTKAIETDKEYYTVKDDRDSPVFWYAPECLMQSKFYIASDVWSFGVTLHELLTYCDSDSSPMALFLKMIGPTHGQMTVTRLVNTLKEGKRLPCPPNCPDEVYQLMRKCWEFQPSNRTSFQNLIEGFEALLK
How it was run: as §1

[3] = target: T3, TYK2 (Homo sapiens, UniProt P29597); test: TYK2 kinase assay (HTRF, inhibition of phosphorylation of a synthetic peptide); details: catalytic domain aa 871-1187, GST-tag; 13 μM ATP (Km); read-out: TYK2 kinase inhibitory activity (EC50)
T3 construct: JAK1 (aa 850-1154) and TYK2 (aa 871-1187) are expressed with an N-terminally fused GST-tag; GST (N); purchased Carna Biosciences, Inc; host or cells: baculovirus expression system
T3 sequence (P29597 871-1187): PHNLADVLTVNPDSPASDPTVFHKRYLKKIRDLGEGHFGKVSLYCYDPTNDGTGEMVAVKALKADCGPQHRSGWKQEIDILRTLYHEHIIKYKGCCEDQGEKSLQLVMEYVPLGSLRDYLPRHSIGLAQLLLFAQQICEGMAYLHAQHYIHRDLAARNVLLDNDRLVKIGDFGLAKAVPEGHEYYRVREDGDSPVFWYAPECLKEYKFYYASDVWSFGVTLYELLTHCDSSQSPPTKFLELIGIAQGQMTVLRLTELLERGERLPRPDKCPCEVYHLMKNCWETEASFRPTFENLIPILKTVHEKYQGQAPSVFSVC
How it was run: as §1

[4] = target: T4, JAK3 (Homo sapiens, UniProt P52333); test: JAK3 kinase assay (HTRF, inhibition of phosphorylation of a synthetic peptide); details: catalytic domain, His-tag; 2 μM ATP (Km); read-out: JAK3 kinase inhibitory activity (EC50)
T4 construct: All four purified enzymes contain only the catalytic domain; His (N); purchased Carna Biosciences, Inc; host or cells: baculovirus expression system
T4 sequence (P52333 822-1111 limits assumed): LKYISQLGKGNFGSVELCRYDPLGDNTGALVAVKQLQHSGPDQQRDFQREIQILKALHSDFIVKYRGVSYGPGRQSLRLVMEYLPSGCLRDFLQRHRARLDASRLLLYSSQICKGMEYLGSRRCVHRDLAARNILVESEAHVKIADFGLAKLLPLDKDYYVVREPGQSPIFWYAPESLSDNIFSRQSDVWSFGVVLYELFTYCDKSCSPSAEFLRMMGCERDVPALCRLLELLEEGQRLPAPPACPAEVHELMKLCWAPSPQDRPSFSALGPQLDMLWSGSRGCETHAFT
How it was run: as §1

EC50 [1]: 100 to 1000 nM
EC50 [2]: < 100 nM
EC50 [3]: > 1000 nM
EC50 [4]: 100 to 1000 nM
SMILES: O=C(CC1CCCC1)N1CCCN(c2ncnc3[nH]ccc23)CC12CC2 [Example 92, 2-cyclopentyl-1-[5-(7H-pyrrolo[2,3-d]pyrimidin-4-yl)-5,9-diazaspiro[2.6]nonan-9-yl]ethanone]
